Consider two molecules from patent US20230390273A1, “4-PHENYL-TETRAHYDROPYRIDINE DERIVATIVES FOR TREATING HEARING DISEASES” (CILCARE DEV, priority 2021, published 2023).

The nature of series [1]: Plasma and inner ear fluid exposure after single trans-tympanic injection in lipid-based mucoadhesive solution (Example 3). The class given is in vivo, male Wistar rats. To be noted: for concentration at 1 h: T0 + 1 hour; for concentration at 24 h: T0 + 24 hours; for High concentrations rapidly reached in the IEF (molar) / High concentrations rapidly reached in the inner ear fluid: trans-tympanic injection; for High concentrations rapidly reached in the IEF (molar): approximate conversion; for High concentrations rapidly reached in the inner ear fluid: summary. The method, then: Composition 7P and composition 7X as described in example 2 were administered to male Wistar rats (5 animals per active agent and timepoint), as described below.
At time T0, 30 μL of composition 7P were administered to 15 rats, in a single ear via trans-tympanic injection. The dose of paliroden fumarate that has been administered is thus of 243 μg in one ear of each rat.
At time T0, 30 μL of composition 7X were administered to 15 other rats, in a single ear via trans-tympanic injection. The dose of xaliproden hydrochloride that has been administered is thus of 181.2 μg in one ear of each rat.
For the 15 rats that have received composition 7P and for the 15 rats that have received composition 7X, plasmatic and inner ear expositions were determined via blood and cochlea terminal sampling in order to achieve lithium-heparin plasma and inner ear fluid preparation, at T+1 hour, T+24 hours and T+168 hours. Bioanalytical methods were validated in both matrices (lithium heparin plasma and inner ear fluid) with a range of 0.2 to 815 ng/mL for paliroden (fumarate salt) and 0.2 to 763 ng/mL for xaliproden (hydrochloride salt).

The test system of another series is male Wistar rats. The series can be described thus: ABR/DPOAE assessment, noise-induced permanent hearing loss, immediate trans-tympanic treatment (Example 6). The class given is in vivo. Conditions: T0+28 days, versus traumatized animals untreated or vehicle; treatment 2 hours and 8 days post-noise. As to the method: Fifty male Wistar rats were selected and distributed to treatment (“traumatized paliroden” group and “traumatized xaliproden” group) and control groups (“sham” group, “traumatized” group and “traumatized vehicle” group), each group comprising at least 9 rats at the end of the study. Randomization was performed using the ABR threshold in the left ear at 16 kHz as a criterium. The “sham” group consists in rats (n=11) that received neither noise exposure nor trans-tympanic injection. The “traumatized” group consists of rats (n=9) that received noise exposure only and no treatment. The “traumatized vehicle” group consists in rats (n=10) that received noise exposure and trans-tympanic injection in both ears of 30 μL of placebo (a composition comprising Poloxamer 407 (7,2% w/w), Poloxamer 188 (8% w/w) and Cremophor EL® (20% w/w) in phosphate buffer pH=7.4, the percentages being expressed relative to the total weight of the composition) between the eardrum and the round window by means of a needle which crosses the eardrum, 4 hours after the start of the noise exposure (i.e. injection of placebo at T0+4 hours, thus 2 hours after the end of the noise exposure) and 8 days post-noise exposure, under isoflurane anesthesia. […]

[2] abbreviates: male, Wistar, other: trans-tympanic injection, rat inner ear fluid, trans-tympanic 243 μg, read-out: Concentration of paliroden (fumarate salt), IEF, Mean.
The mark [3] stands for this setting: male, Wistar, plasma, other: trans-tympanic injection, rat, trans-tympanic 243 μg one ear, read-out: Concentration of paliroden (fumarate salt), Plasma, Mean.
The mark [4] stands for this setting: male, Wistar, other: trans-tympanic injection, rat inner ear fluid, trans-tympanic 181.2 μg, read-out: Concentration of xaliproden (hydrochloride salt), IEF, Mean.
Where [5] appears, read: male, Wistar, plasma, other: trans-tympanic injection, rat, trans-tympanic 181.2 μg one ear, read-out: Concentration of xaliproden (hydrochloride salt), Plasma, Mean.

The structures appear in SMILES notation. Counter-ions that a name gives are not always drawn. Like-named read-outs stand apart in the source and are kept apart here.

As to `FC(F)(F)c1cccc(C2=CCN(CCc3ccc(-c4ccccc4)cc3)CC2)c1` [paliroden (fumarate salt), 1-[2-(4-biphenylyl)ethyl]-4-(3-trifluoromethylphenyl)-1,2,3,6-tetrahydropyridine], in series [1] (setting [2]), the concentration at 1 h came to 5100 ng/mL and the concentration at 24 h is 3.2 ng/mL. Further, in series [1] (setting [3]), the concentration at 1 h was found to be 0.9 ng/mL and the concentration at 24 h turned out to be 1.7 ng/mL. The “Concentration of paliroden (fumarate salt), IEF, Mean” value in series [1] (rat inner ear fluid, trans-tympanic 243 μg, T0 + 168 hours) is on record as “BLQ”. For the same molecule, the “Concentration of paliroden (fumarate salt), Plasma, Mean” value in series [1] (rat, trans-tympanic 243 μg one ear, T0 + 168 hours) was “BLQ”. Also, in series [1] (rat), the “High concentrations rapidly reached in the IEF (molar)” value is “approximately 10 μM” and the “High concentrations rapidly reached in the inner ear fluid” value is listed as “approximately 5000 ng/mL”. Further, the “Effect on ABR thresholds, DPOAE amplitudes, ABR Wave I amplitudes” value in the series with male Wistar rats is “did not show effect”.
As for `FC(F)(F)c1cccc(C2=CCN(CCc3ccc4ccccc4c3)CC2)c1` [xaliproden (hydrochloride salt), 1-[2-(2-naphthyl)ethyl]-4-(3-trifluoromethylphenyl)-1,2,3,6-tetrahydropyridine], in series [1] (setting [4]), the concentration at 1 h is 2510 ng/mL and the concentration at 24 h worked out at 74.3 ng/mL. Further, in series [1] (setting [5]), the concentration at 1 h stood at 4.4 ng/mL and the concentration at 24 h is 5.2 ng/mL. Besides, the concentration at 168 h in series [1] (male, Wistar, plasma, other: trans-tympanic injection, rat, trans-tympanic 181.2 μg one ear, T0 + 168 hours, read-out: Concentration of xaliproden (hydrochloride salt), Plasma, Mean) amounted to 0.5 ng/mL. In addition, the “Concentration of xaliproden (hydrochloride salt), IEF, Mean” value in series [1] (rat inner ear fluid, trans-tympanic 181.2 μg, T0 + 168 hours) is on record as “BLQ”. Also, in series [1] (rat), the “High concentrations rapidly reached in the IEF (molar)” value is ~5 µM and the “High concentrations rapidly reached in the inner ear fluid” value is reported as ~2500 ng/mL. Moreover, the “Effect on ABR thresholds, DPOAE amplitudes, ABR Wave I amplitudes” value with male Wistar rats is reported as “did not show effect”.
